Biological target: T1, human vasopressin V2 receptor subtype (Homo sapiens, UniProt P30518)
T1 construct: host or cells: CHO cells, stably transfected (pZeoSV vector)
Experiment: Vasopressin binding in CHO cell membranes expressing human vasopressin V2 subtype receptors ([3H]arginine vasopressin radioligand binding)
Settings: 100 nM
Description: Vasopressin Binding in Chinese Hamster Ovary Cell Membranes Expressing Human Vasopressin V2 Subtype Receptors
Chinese Hamster Ovary (CHO) cells stably transfected with the human V2 subtype receptors were obtained from M. Thibonnier, Case Western Reserve University School of Medicine, Cleveland, Ohio.
The trypsin is removed by aspiration and the cells dislodged by tapping. Cell Culture medium (e.g. 30 mL for 1:30 split) is immediately added and mixed well to inactivate trypsin. 1 mL of detached cells is added to new culture flasks containing fresh Cell Culture medium (e.g. into 25 mL per T-150 flask), and mixed gently. The cells are incubated at 37° C. in 5% CO2. The medium is changed at 3 to 4 day interval (or as appropriate). […] All steps are done under sterile conditions.
The cells are washed twice gently with Hank's Balanced Salt solution (e.g. use 10 mL per T-150 flask). […] The contents are transferred to centrifuge tubes (50 mL) kept in ice bath. All subsequent steps are done at 4° C. The tubes are centrifuged at 300×g for 15 min (1380 rpm on SORVAL, Model RT6000D, using the rotor for 50 mL tubes). The supernatant is discarded and the cells suspended in homogenizing buffer(10 mM Tris-HCl containing 0.25 M sucrose and 1 mM EDTA, pH 7.4) ensuring that the volume of the buffer is about ten times the volume of the cell pellet. The cells are pooled into a centrifuge tube (50 mL) and homogenized with Polytron at setting 6 for 10 sec. The homogenate is transferred into a Potter-Elvjehm homogenizer and homogenized with 3 strokes. The homogenate is centrifuged at 1500×g for 60 min at 4° C. (3100 rpm using SORVAL, model RT6000D, using the rotor for 50 mL tubes). The pellet is discarded. The supernatant is centrifuged at 100,000×g for 60 min. at 4° C. (Beckman L8-80M ultracentrifuge; spin at 37,500 rpm with rotor type 70 Ti for 50 mL tubes; 38,000 rpm with type 80Ti for 15 mL tubes; or 35,800 rpm with rotor type 45Ti). The supernantant is discarded and the pellet suspended in 3 to 4 mL of Tris buffer (50 mM TRIS-HCl, pH 7.4). The protein content is estimated by the Bradford or Lowry method. The volume of the membrane suspension is adjusted with the membrane buffer (50 mM Tris-HCl containing 0.1% BSA and 0.1 mM PMSF) to give 3.0 mg/mL (or as appropriate) of protein. The membranes are aliquoted and stored at −70° C.
In wells of a 96-well format microtiter plate, is added 90, 110 or 130 μL (to make up a final volume of 200 μL) of assay buffer containing 50 mM of Tris-HCl (pH 7.4), […], 1 mg % aprotinin, 1 mg % leupeptin, 2 mg % 1,10-phenanthroline, 10 mg % trypsin inhibitor, and 0.1 mM PMSF. The inhibitors are added on the day of the experiment. The components are mixed at room temperature, and then kept in ice bath following adjustment of the pH to 7.4. […] For vasopressin and other peptide ligands 20 μL of 50% DMSO is added and the assay buffer volume is adjusted accordingly. To each well is added 50 μL of frozen membrane suspension thawed immediately prior to use and diluted in assay buffer to the required concentration (equivalent to 25 to 50 μg of protein/well as needed). 20 μL of 8 nM [^3H]arginine vasopressin ligand in the assay buffer, prepared just before use is added and incubated at room temperature for 60 min. shaking the plate on a mechanical shaker for the first 15 min. The incubation is stopped by rapid filtration of the plate contents followed by wash with ice-cold buffer (50 mM Tris-HCl, pH 7.4) using a cell harvester (Tomtek and Printed filtermat-B filter paper). The filter paper is thoroughly dried (7–12 min. in a microwave oven) and impregnated with MeltiLex B/H melt-on scintillation wax sheets and the radioactivity counted in a betaplate scintillation counter.
Binding data is either reported as percent inhibition at a certain concentration or if an IC50 was calculated, as a nanomolar concentration.

T1 sequence (P30518 whole entry): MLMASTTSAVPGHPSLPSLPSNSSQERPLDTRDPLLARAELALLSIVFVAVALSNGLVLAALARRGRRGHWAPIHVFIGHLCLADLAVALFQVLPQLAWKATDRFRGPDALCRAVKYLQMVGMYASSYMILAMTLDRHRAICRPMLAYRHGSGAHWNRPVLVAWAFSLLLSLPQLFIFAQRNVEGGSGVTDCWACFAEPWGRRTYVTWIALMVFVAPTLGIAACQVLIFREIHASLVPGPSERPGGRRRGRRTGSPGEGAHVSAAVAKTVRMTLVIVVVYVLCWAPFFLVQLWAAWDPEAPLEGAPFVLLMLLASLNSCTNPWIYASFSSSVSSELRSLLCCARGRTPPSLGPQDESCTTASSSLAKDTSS

SMILES | inhibition at 0.1 µM | V2 % inhibition @ 100 nM
COc1cccc(-c2ccc(C(=O)N3Cc4ccc(C(=O)NCc5ccccn5)n4Cc4ccccc43)cc2C)c1 [Example 25, 10-[(3′-Methoxy-2-methyl-[1,1′-biphenyl]-4-yl)carbonyl]-N-(2-pyridinylmethyl)-10,11-dihydro-5H-pyrrolo[2,1-c][1,4]benzodiazepine-3-carboxamide] | 33% | 
COc1cccc(-c2cc(OC)c(C(=O)N3Cc4ccc(C(=O)NCc5cccnc5)n4Cc4ccccc43)cc2Cl)c1 [Example 43, 10-[(6-Chloro-3,3′-dimethoxy-[1,1′-biphenyl]-4-yl)carbonyl]-N-(3-pyridinylmethyl)-10,11-dihydro-5H-pyrrolo[2,1-c][1,4]benzodiazepine-3-carboxamide] | 7% | 
COc1cc(C(=O)N2Cc3ccc(C(=O)NCCc4ccccn4)n3Cc3ccccc32)ccc1-c1ccccc1C [Example 54, 10-[(2-Methoxy-2′-methyl-[1,1′-biphenyl]-4-yl)carbonyl]-N-[2-(2-pyridinyl)ethyl]-10,11-dihydro-5H-pyrrolo[2,1-c][1,4]benzodiazepine-3-carboxamide] | 18% | 
O=C(NCc1cccnc1)c1ccc2n1Cc1ccccc1N(C(=O)c1ccc(-c3cccc4ccccc34)cc1Cl)C2 [Example 47, 10-[2-Chloro-4-(naphthalen-1-yl)benzoyl]-N-(3-pyridinylmethyl)-10,11-dihydro-5H-pyrrolo[2,1-c][1,4]benzodiazepine-3-carboxamide] | 6% | 
COc1ccccc1-c1ccc(C(=O)N2Cc3ccc(C(=O)N4CCCCC4c4cccnc4)n3Cc3ccccc32)cc1OC (stereo not shown) [Example 141, {10-[(2,2′-Dimethoxy-[1,1′-biphenyl]-4-yl)carbonyl]-10,11-dihydro-5H-pyrrolo[2,1-c][1,4]benzodiazepin-3-yl}[2-(3-pyridinyl)-1-piperidinyl]methanone] | 40% | 
Cc1cc(C(=O)N2Cc3ccc(C(=O)NCCc4ccccn4)n3Cc3ccccc32)ccc1-c1ccccc1C(F)(F)F [Example 61, 10-{[2-Methyl-2′-trifluoromethyl=[1,1′-biphenyl]-4-yl]carbonyl}-N-[2-(2-pyridinyl)ethyl]-10,11-dihydro-5H-pyrrolo[2,1-c][1,4]benzodiazepine-3-carboxamide] |  | 14%
COc1cccc(-c2cc(OC)c(C(=O)N3Cc4ccc(C(=O)N(C)CCc5ccncc5)n4Cc4ccccc43)cc2Cl)c1 [Example 133, 10-[(6-Chloro-3,3′-dimethoxy-[1,1′-biphenyl]-4-yl)carbonyl]-N-methyl-N-[2-(4-pyridinyl)ethyl]-10,11-dihydro-5H-pyrrolo[2,1-c][1,4]benzodiazepine-3-carboxamide] | 15% | 
COc1ccccc1-c1ccc(C(=O)N2Cc3ccc(C(=O)N(C)CCc4ccncc4)n3Cc3ccccc32)cc1OC [Example 125, 10-[(2,2′-Dimethoxy-[1,1′-biphenyl]-4-yl)carbonyl]-N-methyl-N-[2-(4-pyridinyl)ethyl]-10,11-dihydro-5H-pyrrolo[2,1-c][1,4]benzodiazepine-3-carboxamide] | -10% | 
CN(Cc1cccnc1)C(=O)c1ccc2n1Cc1ccccc1N(C(=O)c1ccc(-c3cccc4ccccc34)cc1Cl)C2 [Example 111, 10-[2-Chloro-4-(naphthalen-1-yl)benzoyl]-N-methyl-N-(3-pyridinylmethyl)-10,11-dihydro-5H-pyrrolo[2,1-c][1,4]benzodiazepine-3-carboxamide] | 23% | 
COc1cccc(-c2ccc(C(=O)N3Cc4ccc(C(=O)NCCc5ccccn5)n4Cc4ccccc43)cc2C)c1 [Example 51, 10-[(3′-Methoxy-2-methyl-[1,1′-biphenyl]-4-yl)carbonyl]-N-[2-(2-pyridinyl)ethyl]-10,11-dihydro-5H-pyrrolo[2,1-c][1,4]benzodiazepine-3-carboxamide] | 16% | 
O=C(NCCc1ccccn1)c1ccc2n1Cc1ccccc1N(C(=O)c1ccc(-c3cccc4ccccc34)cc1Cl)C2 [Example 60, 10-[2-Chloro-4-(naphthalen-1-yl)benzoyl]-N-[2-(2-pyridinyl)ethyl]-10,11-dihydro-5H-pyrrolo[2,1-c][1,4]benzodiazepine-3-carboxamide] | 15% | 
Cc1cc(C(=O)N2Cc3ccc(C(=O)NCc4ccccn4)n3Cc3ccccc32)ccc1-c1ccccc1C(F)(F)F [Example 35, 10-{[2-Methyl-2′-trifluoromethyl-[1,1′-biphenyl]-4-yl]carbonyl}-N-(2-pyridinylmethyl)-10,11-dihydro-5H-pyrrolo[2,1-c][1,4]benzodiazepine-3-carboxamide] | 14% | 

Second part, led by results:

inhibition at 0.1 µM | SMILES | V2 % inhibition @ 100 nM
24% | COc1ccccc1-c1ccc(C(=O)N2Cc3ccc(C(=O)NCc4cccnc4)n3Cc3ccccc32)cc1C [Example 36, 10-[(2′-Methoxy-2-methyl-[1,1′-biphenyl]-4-yl)carbonyl]-N-(3-pyridinylmethyl)-10,11-dihydro-5H-pyrrolo[2,1-c][1,4]benzodiazepine-3-carboxamide] | 
-4% | COc1cc(C(=O)N2Cc3ccc(C(=O)N4CCN(c5ccncc5)CC4)n3Cc3ccccc32)ccc1-c1cccc2ccccc12 [Example 121, {10-[3-Methoxy-4-(naphthalen-1-yl)benzoyl]-10,11-dihydro-5H-pyrrolo[2,1-c][1,4]benzodiazepin-3-yl}[4-(4-pyridinyl)-1-piperazinyl]methanone] | 
7% | Cc1ccccc1-c1ccc(C(=O)N2Cc3ccc(C(=O)NCc4cccnc4)n3Cc3ccccc32)cc1C [Example 37, 10-[(2,2′-Dimethyl-[1,1′-biphenyl]-4-yl)carbonyl]-N-(3-pyridinylmethyl)-10,11-dihydro-5H-pyrrolo[2,1-c][1,4]benzodiazepine-3-carboxamide] | 
17% | Cc1ccccc1-c1ccc(C(=O)N2Cc3ccc(C(=O)NCCc4ccccn4)n3Cc3ccccc32)cc1C [Example 50, 10-[(2,2′-Dimethyl-[1,1′-biphenyl]-4-yl)carbonyl]-N-[2-(2-pyridinyl)ethyl]-10,11-dihydro-5H-pyrrolo[2,1-c][1,4]benzodiazepine-3-carboxamide] | 
2% | COc1cc(C(=O)N2Cc3ccc(C(=O)N4CCN(c5ccccn5)CC4)n3Cc3ccccc32)ccc1-n1c(C)ccc1C [Example 145, {10-[4-(2,5-Dimethyl-1H-pyrrol-1-yl)-3-methoxybenzoyl]-10,11-dihydro-5H-pyrrolo[2,1-c][1,4]benzodiazepin-3-yl}[4-(pyridin-2-yl)-1-piperazinyl]methanone] | 
17% | COc1cc(-c2ccccc2C)c(Cl)cc1C(=O)N1Cc2ccc(C(=O)N3CCN(c4ccncc4)CC3)n2Cc2ccccc21 [Example 119, {10-[(6-Chloro-3-methoxy-2′-methyl-[1,1′-biphenyl]-4-yl)carbonyl]-10,11-dihydro-5H-pyrrolo[2,1-c][1,4]benzodiazepin-3-yl}[4-(4-pyridinyl)-1-piperazinyl]methanone] | 
18% | Cc1ccccc1-c1ccc(C(=O)N2Cc3ccc(C(=O)N4CCN(c5ccncc5)CC4)n3Cc3ccccc32)cc1C [Example 114, {10-[(2,2′-Dimethyl-[1,1′-biphenyl]-4-yl)carbonyl]-10,11-dihydro-5H-pyrrolo[2,1-c][1,4]benzodiazepin-3-yl}[4-(4-pyridinyl)-1-piperazinyl]methanone] | 

Source: patent US7064120B2, “Tricyclic pyridyl carboxamides and derivatives thereof tocolytic oxytocin receptor antagonists” (Wyeth, priority 2001, dated 2006)
